Experimental data reported in patent US20030229066A1, “Novel heterocyclic urea derivatives and their use as dopamine D3 receptor ligands” (priority 2001, published 2003).

The molecules below were run against T1, cloned human dopamine D3 receptors (Homo sapiens, UniProt P35462) (assay: [N-Methyl-3H]Spiroperidol binding to cloned human dopamine D3 receptors).
T1 construct: expressed in transfected cells
From the text: [N-Methyl-^3H]Spiroperidol Binding to Cloned Human Dopamine D3 Receptors
This assay measures the in vitro activity of compounds on cloned human dopamine (D3) receptors and predicts the direct dopamine-blocking properties of putative neuropsychiatric agents at human dopamine D3 receptors.
The D3 gene was isolated from a human striatal cDNA library (Stratagene). The gene was sequenced and sub-cloned into the expression vector RC/RSV (Invitrogen). CHO (Chinese Hamster Ovary) cells were stably transfected with 10 μg of the D3/RSV plasmid using the DOTAP method from Boehringer Mannheim and 72 clones that were G418 resistant were isolated. Using mRNA and binding displacement data a single high expressing clone was identified. This clone was then grown in large batches for the purpose of developing a 96 well format assay.
The cells are harvested into 250 ml centrifuge tubes with 100 volumes of cold phosphate buffered saline (PBS) and spun down (1200×G for 10 min at 4° C.). The medium is removed and 100 ml PBS are added to each centrifuge tube, cells are resuspened and spun down again. The PBS is removed and the final pellet is homogenized in an appropriate volume of 10% DMSO with a polytron on ice at a medium setting.
For Kj determinations: [^3H]NMSP is made up to a concentration of 2.7 nM in buffer 2b, such that when 150 μl is added to each tube a final concentration of 0.4 nM is attained in the 1 ml assay. Samples of total CPM added are taken for each experiment to calculate the total ligand concentration.
5. S(-)-Eticlopride is obtained from Research Biochemicals International (RBI catalog number E-101). A refrigerated stock (good for up to a month) solution of S(-)-eticlopride is made at a concentration of 30 μM in buffer 2b. One hundred microliters are added to 3 wells for the determination of nonspecific binding (this yields a final concentration of 3 μM in the 1 ml assay).
For most assays, a 100 μM stock solution of the test compound is made up in a suitable solvent (usually <0.1% acetic acid) and serially diluted with buffer 2b, such that when 100 μl of drug is combined with the total 1 ml assay, final concentrations ranging from 10^−5-10^−8 M are attained. Characteristically eight concentrations are studied for each assay; however, higher or lower concentrations may be used, depending on the potency of the drug.
The 96-Well Packard Unifilters GF/B are incubated for >1 h at 25° C. in 0.1% polyethylamine (from 3,b). The cold tissue is added last and mixed on a orbital shaker for a few seconds and is then incubated at 37° C. for 30 min in a shaking water bath. The assay is stopped by rapid filtration through Packard Unifilter plates. The filter membranes are then washed with 15 ml of ice-cold 0.05 M Tris buffer. The filters are then dried (˜15 min under a heat lamp or incubated for 15 min in a 60° C. oven) and a bottom seal is applied. Then 40 μl of Packard Microscint 20 scintillation cocktail is added and a permanent topseal (Type P) is applied and heat sealed. The plates are then shaken on an orbital shaker for 1 h and placed in the Packard Topcount and counted for at least 5 minutes for each point.
Specific binding is defined as the difference between total binding and the binding in the presence of 3 μM S-(-)-eticlopride. Total binding is approximately 10% of the total added ligand. Cheng-Prusoff determination (Kj's) are performed using Prism software using a one-site competition curve analysis where the top and the bottom of the non-linear regression are held constant at 0% and 100% percent inhibition. The percent inhibition at each drug concentration is the mean of duplicate determinations.

T1 sequence (P35462 whole entry): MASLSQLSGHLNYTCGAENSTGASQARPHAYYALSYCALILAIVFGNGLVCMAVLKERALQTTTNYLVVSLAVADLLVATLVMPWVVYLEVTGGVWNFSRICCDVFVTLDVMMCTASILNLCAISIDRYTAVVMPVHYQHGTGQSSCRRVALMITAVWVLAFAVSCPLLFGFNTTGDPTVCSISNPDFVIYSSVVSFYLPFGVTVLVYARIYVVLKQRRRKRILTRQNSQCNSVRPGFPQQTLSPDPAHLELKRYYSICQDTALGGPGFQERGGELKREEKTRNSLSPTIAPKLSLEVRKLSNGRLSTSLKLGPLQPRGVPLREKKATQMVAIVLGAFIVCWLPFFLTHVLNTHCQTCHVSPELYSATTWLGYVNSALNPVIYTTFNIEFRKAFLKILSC

SMILES | Ki [nM]
COc1cccc(NC(=O)NCCCCN2CCCN(c3csc4cc(F)ccc34)CC2)c1 [compound 829221] | 0.0961
O=C(NCCCCN1CCN(c2noc3ccsc23)CC1)Nc1cccc(Cl)c1 [compound 829370] | 4.91
O=C(NCCCCN1CCN(c2noc3ccsc23)CC1)Nc1cccc(Br)c1 [compound 829373] | 14.9
O=C(NCCCCN1CCN(c2noc3ccsc23)CC1)Nc1cc(F)ccc1F [compound 829377] | 87.9
CSc1ccc(NC(=O)NCCCCN2CCN(c3noc4ccsc34)CC2)cc1 [compound 829379] | 54.9
Cc1ccc(NC(=O)NCCCCN2CCN(c3noc4ccsc34)CC2)cc1 [compound 829380] | 26.9
COc1cc(NC(=O)NCCCCN2CCN(c3noc4ccsc34)CC2)cc(OC)c1OC [compound 829384] | 190
O=C(NCCCCN1CCN(c2noc3ccsc23)CC1)Nc1ccc(F)cc1 [compound 829388] | 44
O=C(NCCCCN1CCN(c2noc3ccsc23)CC1)Nc1ccc(Cl)c(Cl)c1 [compound 829389] | 50.5
O=C(NCCCCN1CCN(c2noc3ccsc23)CC1)Nc1ccc(Cl)cc1 [compound 829390] | 37.5
O=C(NCCCCN1CCN(c2noc3ccsc23)CC1)Nc1ccc(Cl)cc1C(F)(F)F [compound 829392] | 487
O=C(NCCCCN1CCN(c2noc3ccsc23)CC1)Nc1cccc(F)c1 [compound 829394] | 77.1
COc1cccc(NC(=O)NCCCCN2CCN(c3noc4ccsc34)CC2)c1 [compound 829398] | 44.1
CC(C)c1ccc(NC(=O)NCCCCN2CCN(c3noc4ccsc34)CC2)cc1 [compound 829407] | 452
O=C(NCCCCN1CCCN(c2noc3ccsc23)CC1)Nc1cccc(Cl)c1 [compound 829409] | 379
O=C(NCCCCN1CCCN(c2noc3ccsc23)CC1)Nc1ccc(C(F)(F)F)cc1 [compound 829411] | 670

SMILES | Ki [nM]
O=C(NCCCCN1CCCN(c2noc3ccsc23)CC1)Nc1cc(C(F)(F)F)ccc1Cl [compound 829415] | 345
O=C(NCCCCN1CCCN(c2noc3ccsc23)CC1)Nc1cc(F)ccc1F [compound 829417] | 338
O=C(NCCCCN1CCCN(c2noc3ccsc23)CC1)Nc1cc(Cl)cc(Cl)c1 [compound 829418] | 52.9
CC(=O)c1cccc(NC(=O)NCCCCN2CCCN(c3noc4ccsc34)CC2)c1 [compound 829421] | 173
CC(C)c1ccc(NC(=O)NCCCCN2CCCN(c3noc4ccsc34)CC2)cc1 [compound 829422] | 466
O=C(NCCCCN1CCCN(c2noc3ccsc23)CC1)Nc1cc(C(F)(F)F)ccc1F [compound 829425] | 539
O=C(NCCCCN1CCCN(c2noc3ccsc23)CC1)Nc1ccc(F)c(C(F)(F)F)c1 [compound 829427] | 459
O=C(NCCCCN1CCCN(c2noc3ccsc23)CC1)Nc1cccc(C(F)(F)F)c1 [compound 829432] | 226
COc1ccc(NC(=O)NCCCCN2CCCN(c3noc4ccsc34)CC2)cc1 [compound 829433] | 216
CCOc1ccc(NC(=O)NCCCCN2CCC(c3noc4c(C)csc34)CC2)cc1 [compound 829873] | 27.7
Cc1csc2c(C3CCN(CCCCN(C(=O)Nc4cccc(F)c4)C(=O)Nc4cccc(F)c4)CC3)noc12 [compound 829875] | 94.7
COc1cccc(NC(=O)N(CCCCN2CCC(c3noc4c(C)csc34)CC2)C(=O)Nc2cccc(OC)c2)c1 [compound 829876] | 77.1
Cc1csc2c(C3CCN(CCCCNC(=O)Nc4ccccc4F)CC3)noc12 [compound 829879] | 354
O=C(NC[C@@H]1C[C@H]1CN1CCN(c2csc3cc(C(F)(F)F)ccc23)CC1)Nc1cccc(F)c1 [compound 832786] | 61.6
O=C(NC[C@@H]1C[C@H]1CN1CCN(c2csc3cc(C(F)(F)F)ccc23)CC1)Nc1ccccc1C(F)(F)F [compound 832812] | 39.5
O=C(NC[C@@H]1C[C@H]1CN1CCN(c2csc3cc(C(F)(F)F)ccc23)CC1)Nc1cccc(Cl)c1 [compound 832813] | 50.8

Continued by falling Ki, values first:

Ki [nM] | SMILES
747 | O=C(NCCCCN1CCCN(c2noc3ccsc23)CC1)Nc1ccc(F)cc1 [compound 829428]
546 | O=C(NCCCCN1CCCN(c2noc3ccsc23)CC1)Nc1cc(C(F)(F)F)cc(C(F)(F)F)c1 [compound 829414]
360 | CCOc1ccc(NC(=O)N(CCCCN2CCC(c3noc4c(C)csc34)CC2)C(=O)Nc2ccc(OCC)cc2)cc1 [compound 829874]
327 | O=C(NCCCCN1CCCN(c2noc3ccsc23)CC1)Nc1ccc(Cl)c(C(F)(F)F)c1 [compound 829416]
233 | CSc1ccc(NC(=O)NCCCCN2CCCN(c3noc4ccsc34)CC2)cc1 [compound 829420]
197 | O=C(NCCCCN1CCCN(c2noc3ccsc23)CC1)Nc1ccc(Br)cc1 [compound 829434]
190 | O=C(NCCCCN1CCN(c2noc3ccsc23)CC1)Nc1ccccc1F [compound 829393]
184 | O=C(NCCCCN1CCN(c2noc3ccsc23)CC1)Nc1cc(Cl)cc(Cl)c1 [compound 829378]
176 | O=C(NCCCCN1CCN(c2noc3ccsc23)CC1)Nc1cc(C(F)(F)F)cc(C(F)(F)F)c1 [compound 829375]
153 | O=C(NCCCCN1CCCN(c2noc3ccsc23)CC1)Nc1cccc(F)c1 [compound 829431]
148 | O=C(NCCCCN1CCN(c2noc3ccsc23)CC1)Nc1cccc(C(F)(F)F)c1 [compound 829395]
143 | Cc1csc2c(C3CCN(CCCCNC(=O)Nc4cccc(C(F)(F)F)c4Cl)CC3)noc12 [compound 829882]
142 | O=C(NCCCCN1CCN(c2noc3ccsc23)CC1)Nc1cc(C(F)(F)F)ccc1F [compound 829385]
138 | Cc1ccc(NC(=O)NCCCCN2CCCN(c3noc4ccsc34)CC2)cc1 [compound 829419]
121 | COc1ccc(NC(=O)NCCCCN2CCN(c3noc4ccsc34)CC2)cc1 [compound 829396]
114 | O=C(NCCCCN1CCN(c2noc3ccsc23)CC1)Nc1ccc(F)c(C(F)(F)F)c1 [compound 829387]
111 | O=C(NCCCCN1CCCN(c2noc3ccsc23)CC1)Nc1ccc(Cl)c(Cl)c1 [compound 829429]
103 | O=C(NCCCCN1CCN(c2noc3ccsc23)CC1)Nc1ccc(OC(F)(F)F)cc1 [compound 829374]
102 | N#Cc1cccc(NC(=O)NCCCCN2CCN(c3noc4ccsc34)CC2)c1 [compound 829383]
86.6 | O=C(NCCCCN1CCN(c2noc3ccsc23)CC1)Nc1ccc(Br)cc1 [compound 829397]
55.2 | O=C(NCCCCN1CCN(c2noc3ccsc23)CC1)Nc1ccc(F)cc1F [compound 829371]
46.5 | CC(=O)c1cccc(NC(=O)NCCCCN2CCN(c3noc4ccsc34)CC2)c1 [compound 829381]
44.2 | Cc1cccc(NC(=O)NCCCCN2CCN(c3noc4ccsc34)CC2)c1 [compound 829369]
42.7 | CCOc1ccc(NC(=O)NCCCCN2CCN(c3noc4ccsc34)CC2)cc1 [compound 829382]
33.5 | COc1ccc(NC(=O)NC[C@@H]2C[C@H]2CN2CCN(c3csc4cc(C(F)(F)F)ccc34)CC2)cc1 [compound 832810]
31.9 | O=C(NCCCCN1CCN(c2noc3ccsc23)CC1)Nc1ccc(C(F)(F)F)cc1 [compound 829372]
18.2 | O=C(NC[C@@H]1C[C@H]1CN1CCN(c2csc3cc(C(F)(F)F)ccc23)CC1)NC1CCCCC1 [compound 832811]
9.16 | COc1ccc(NC(=O)NCCCCN2CCC(c3noc4cc(C)sc34)CC2)cc1 [compound 830518]
9.04 | Cc1ccc(NC(=O)NCCCCN2CCC(c3noc4cc(C)sc34)CC2)cc1 [compound 830517]
8.78 | Cc1cccc(NC(=O)NCCCCN2CCC(c3noc4c(C)csc34)CC2)c1 [compound 829878]
